Reference: patent US9446007B2, “Methods for maintaining or improving health, well-being and/or a physiological function in a subject” (DYNAMIS THERAPEUTICS, INC., priority 2012, dated 2016)

Tests used:
3-Deoxyglucosone (3DG) = assay: Mice study: urine 3-deoxyglucosone (3DG) levels, GC-MS; type: in vivo, C57BL/6 male mice; settings: 10, 40 or 75 mM in drinking water; age 103 weeks; vs control animals
Protocol: (§1) A group of sixteen C57BL/6 male mice at 12 weeks of age were distributed into 4 groups (n=4 each). Animals were fed a normal diet supplemented with 0 mM, 10 mM, 40 mM, or 75 mM meglumine in the drinking water. The approximate doses of meglumine were 537 mg/kg/day, 2,146 mg/kg/day, and 4,027 mg/kg/day for animals treated with, respectfully, 10 mM, 40 mM and 75 mM meglumine.
Urine was collected from animals (n=3 for all groups, except n=4 for 75 mM meglumine) at the age of 103 weeks and 3DG levels were measured using GC-MS with an internal U-[^13C]-3DG standard (FIG. 2). Prior to analysis, urine samples were treated with 2,3-diaminonapthalene overnight to derivatize 3DG, and then extracted with ethyl acetate. Urinary creatinine levels were measured with a reagent kit from Oxford Biochemicals. The 3DG/creatinine ratio (±standard deviation) is illustrated in FIG. 2.

C57BL/6 male mice = assay: Mice study: longevity; type: in vivo; settings: for average lifespan (±standard deviation): control 771±214.6
Protocol: as §1
Animals were observed daily, and date of death was noted if applicable. Four animals were found dead in their cages, and twelve were euthanized after showing symptoms of distress (hunched posture, weight loss, decreased food intake).
The average lifespan (±standard deviation) for the mice treated with 0 mM, 10 mM, 40 mM and 75 mM meglumine was 771±214.6 days, 834±124 days, 927±80.3 days and 1,027±117.5 days. Animals treated with 10 mM, 40 mM and 75 mM lived, respectively, 8.2%, 20.2%, and 33.2% longer than the control animals.

[1] = test system: advanced glycation end products (AGE products); assay: Rat study: advanced glycation end product in skin (fluorescence ratio); type: in vivo, Sprague-Dawley rat; settings: 32 weeks; for Mean AGE/Total Protein in skin: water 0.594 ± 0.173; for decrease of AGE product in the skin vs untreated rats: not statistically significant
Protocol: At the end of 32 weeks the ratio of advanced glycation end products (AGE products) to total protein was determined in the skin using the ratio of fluorescence measurements. A 3 cm^2 biopsy was taken from the shaved dorsal surface of the rats. The dermis was separated from the epidermis via immersion in water at 55° C. for 30 seconds, followed by gentle scraping of epidermis. The dermis was placed onto a wire screen cut to fit diagonally into fluorescence spectrometer. Fluorescence was recorded on PE 650-40 fluorescence spectrometer using front surface (“diagonal”) geometry. Fluorescence intensities were monitored at excitation/emission wavelengths of 270/300 nm, 270/330 nm, 270/360 nm, 270/400 nm, 325/400 nm, 270/450 nm and 370/450 nm. For direct comparison at the same excitation wavelength, ratios of I(270/330 nm) to I(270/450 nm) were recorded. These ratios were corrected for different instrumental responses at 330 and 450 nm.

3DG = assay: Rat study: urinary 3DG levels, GC-MS; type: in vivo, Sprague-Dawley rat; settings: 50 mM, 32 weeks
Protocol: The level of 3DG was measured in the urine of the rats at 32 weeks. 3DG levels were measured by GC-MS by reacting 0.1 ml of sample, to which 20 picomoles of [U-^13C] labeled 3DG had been added as an internal standard, with 1 ml of 1 mM 2,3-diaminonaphthalene (DAN) for 24 hours at room temperature. Following reaction with DAN, the sample was extracted with four volumes of ethyl acetate and then dried. The residue was dissolved in 50 μl of N-methyl-N-(trimethylsilyl)trifluoroacetamide and heated at 65° C. for 30 min. 2 μl was analyzed by GC-MS. Levels of 3DG were normalized to creatinine levels measured with reagents from Oxford Biochemicals.

isoprostane = assay: Rat study: urinary isoprostane levels, competitive ELISA; type: in vivo, Sprague-Dawley rat; settings: 50 mM, 32 weeks
Protocol: […] Rat urine from 32 weeks was measured for the presence of isoprostane, a marker for oxidative stress using a competitive ELISA (Oxford Biochemicals, Oxford Mich.). All values were normalized to creatinine levels to control for differences in urine volume. Creatinine was measured using a kit from Oxford Biochemicals.

imidazolone [2] = assay: Rat study: 3DG adduct (imidazolone) levels in skin, fluorescent immunohistochemistry; type: in vivo, Sprague-Dawley rat; settings: 50 mM, 32 weeks
Protocol: Eighteen male Sprague-Dawley rat (ACE) weighing 150-175 g were divided into 3 groups (n=6) and fed a normal diet supplemented with 0 mM, 25 mM, or 75 mM meglumine in the drinking water for 32 weeks. The presence of imidazolone, a 3DG-derived adduct formed from the reaction of 3DG and arginine was measured by fluorescent immunohistochemistry, using a monoclonal antibody to imidazolone, AG-1 (T. Niwa). A piece of skin from each rat on water and 50 mM meglumine was fixed in formalin, and thin sections were treated with AG-1 antibody and then a fluorescent second antibody, and each slide was scanned using a fluorescence microscope. The total florescence due to imidazolone over each slide was measured.

imidazolone [3] = assay: Rat study: 3DG adduct (imidazolone) levels in kidney tubules and glomeruli; type: in vivo, Sprague-Dawley rat; settings: 50 mM, 32 weeks
Protocol: Eighteen male Sprague-Dawley rat (ACE) weighing 150-175 g were divided into 3 groups (n=6) and fed a normal diet supplemented with 0 mM, 25 mM, or 75 mM meglumine in the drinking water for 32 weeks. The 3DG adduct imidazolone was measured in kidney tubules and glomeruli by fluorescent immunohistochemistry using a monoclonal antibody to imidazolone, AG-1 (T. Niwa). Kidneys from each rat on water or 50 mM meglumine were placed in formalin, and thin sections were prepared. Each slide was treated with AG-1 and then a fluorescent second antibody, and then scanned using a fluorescence microscope. The total florescence due to imidazolone over each structure measured.

blood glucose = assay: Glucose tolerance test; type: in vivo, KK.Cg-A^y/+/J yellow mice; settings: mutant yellow mice; 18 mM meglumine hydrochloride in water for 16 weeks; 15, 30, 60 and 120 min; vs water
Protocol: Mutant KK.Cg-A^y/+/J “yellow mice” (which are prone to developing diabetes and obesity) and control KK.Cg-A^+/+/J “black mice” were fed with water or water supplemented with 18 mM meglumine hydrochloride for 16 weeks. As a comparison group, SV129 normoglycemic mice were fed with water. The animals were then fasted overnight and blood glucose measured (time 0 min). The animals were injected with glucose, and blood glucose levels measured after 15 min, 30 min, 60 min and 120 min. The results are illustrated in FIG. 8.

SV129 mice = assay: Strength testing in mice (inverted metal grid); type: in vivo; settings: 18 mM meglumine hydrochloride in drinking water, 6 weeks; n=15; control 6.3±3.4; p=0.0006
Text: The grip strength test is a widely-used non-invasive method designed to evaluate mouse limb strength that has been used to investigate the effects of neuromuscular disorders and compound under testing. It is based on the natural tendency of the mouse to grasp a bar or grid when it is suspended by the tail. During this test the mouse grips with both forelimbs (or hind-limbs) a single bar or a mesh. There are three kinds of grip strength tests used: Mesh Grip Test, Wire Grip Test, and Automatic Grip Strength (GS Meter). The Mesh Grip Test measures the ability of the mouse to remain clinging to an inverted or tilted surface such as a wire grid or a cage lid for a period of time, usually up to 1 minute; the Wire Grip Test measures the ability of the mouse to hang on a wire with its forepaws for a preset length of time or until grip fails, while in the Automatic Grip Strength the mouse grasps a horizontal metal bar or grid while is pulled by the tail. The bar or grid is attached to a force transducer that peak pull-force achieved on its digital display. A group of SV129 mice (n=15) and a group of mice treated with 18 mM meglumine hydrochloride in their drinking water (n=15) for 6 weeks were tested for the ability to hold on to an inverted metal grid. The length of time before falling off the grid was averaged, and the standard error was calculated.

SMILES: CNC[C@H](O)[C@@H](O)[C@H](O)[C@H](O)CO [meglumine, (2R,3R,4R,5S)-6-methylaminohexane-1,2,3,4,5-pentol]
- urine 3DG/creatinine ratio (3-Deoxyglucosone (3DG)): less than the control animals
- lived longer than the control animals (C57BL/6 male mice; 10 mM in drinking water): 8.2%
- average lifespan (±standard deviation) (C57BL/6 male mice; 10 mM in drinking water (537 mg/kg/day)): 834 ± 124 days
- lived longer than the control animals (C57BL/6 male mice; 40 mM in drinking water): 20.2%
- average lifespan (±standard deviation) (C57BL/6 male mice; 40 mM in drinking water (2,146 mg/kg/day)): 927 ± 80.3 days
- lived longer than the control animals (C57BL/6 male mice; 75 mM in drinking water): 33.2%
- average lifespan (±standard deviation) (C57BL/6 male mice; 75 mM in drinking water (4,027 mg/kg/day)): 1,027±117.5 days
- Mean AGE/Total Protein in skin ([1]; 25 mM in drinking water): 0.486 ± 0.187
- decrease of AGE product in the skin vs untreated rats ([1]; 25 mM): 10%
- Mean AGE/Total Protein in skin ([1]; 50 mM in drinking water): 0.235 ± 0.067
- decrease of AGE product in the skin vs untreated rats ([1]; 50 mM): 60%
- urinary 3DG levels lower than in rats on water (3DG): 33%
- urinary 3DG (3DG; water 0.0891 ± 0.007): 0.0598 ± 0.004 µM
- urinary isoprostane levels lower than in rats on water (isoprostane; not statistically significant): 22%
- urinary Isoprostane (isoprostane; water 2.65 ± 0.236): 2.05 ± 0.283 ng/mL
- less imidazolone in skin than rats on water (imidazolone [2]; not statistically significant): 25%
- Fluorescence (imidazolone) in skin (imidazolone [2]; water 790567 ± 83833): 593320 ± 87404
- less imidazolone in glomeruli than rats on water (imidazolone [3]; not statistically significant): 24%
- less imidazolone in tubules than rats on water (imidazolone [3]; not statistically significant): 13%
- Fluorescence in Tubules (imidazolone) (imidazolone [3]; water 47,081,228 ± 6,407,142): 40,158,431 ± 3,644,819
- Fluorescence in Glomeruli (imidazolone) (imidazolone [3]; water 85,039,251 ± 13,401,970): 64,376,501 ± 7,548,981
- blood glucose levels after glucose injection (blood glucose): decreased blood glucose levels
- length of time that the animals could hold on to the grid (SV129 mice): 17.8 ± 0.6 s
